This note sets out measurements from patent US6127382A, “Amines substituted with a tetrahydroquinolinyl group an aryl or heteroaryl group and an alkyl group, having retinoid-like biological activity” (Allergan Sales, Inc., priority 1999, dated 2000).

Molecules are shown by their SMILES.

For one test, the target named is T1, RARα (Homo sapiens, UniProt P10276).
T1 sequence (P10276 1-462): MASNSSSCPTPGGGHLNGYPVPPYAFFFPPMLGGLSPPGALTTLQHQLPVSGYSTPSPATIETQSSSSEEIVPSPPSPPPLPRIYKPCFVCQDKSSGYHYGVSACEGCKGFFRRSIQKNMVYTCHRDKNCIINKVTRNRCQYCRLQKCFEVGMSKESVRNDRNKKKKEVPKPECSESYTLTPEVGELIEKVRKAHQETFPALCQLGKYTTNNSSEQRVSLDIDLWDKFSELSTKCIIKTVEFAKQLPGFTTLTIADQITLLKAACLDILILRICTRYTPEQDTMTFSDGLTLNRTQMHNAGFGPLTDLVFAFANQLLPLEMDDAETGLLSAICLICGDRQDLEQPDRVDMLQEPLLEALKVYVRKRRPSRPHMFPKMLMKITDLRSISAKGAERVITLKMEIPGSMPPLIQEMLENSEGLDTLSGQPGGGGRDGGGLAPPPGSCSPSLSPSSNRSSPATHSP
Put plainly: ligand binding assay, RARα. Conditions: read-out: RAR Bind Ki α. An excerpt:
(§1) Other assays described below, measure the ability of the compounds of the present invention to bind to, and/or activate various retinoid receptor subtypes. When in these assays a compound binds to a given receptor subtype and activates the transcription of a reporter gene through that subtype, then the compound is considered an agonist of that receptor subtype. […] In the below described assays the ability of the compounds to bind to RARα, RARβ, RARγ, RXRα, RXRβ and RXRγ receptors, and the ability or inability of the compounds to activate transcription of a reporter gene through these receptor subtypes can be tested. […] However, some of the compounds of the invention may behave as retinoid antagonists or partial antagonists and/or as inverse agonists. Because of the complex distribution of the different retinoid receptors in various organs of the mammalian body partial agonists and partial antagonists and compounds which have the characteristics of both may lend themselves to particularly useful therapeutic applications and may avoid serious side effects of conventional retinoid drugs.
(§2) A holoreceptor transactivation assay and a ligand binding assay which measure the antagonist/agonist like activity of the compounds of the invention, or their ability to bind to the several retinoid receptor subtypes, respectively, are described in published PCT Application No. WO WO93/11755 (particularly on pages 30-33 and 37-41) published on Jun. 24, 1993, the specification of which is also incorporated herein by reference. A detailed experimental procedure for holoreceptor transactivations has been described by Heyman et al. Cell 68, 397-406, (1992); Allegretto et al. J. Biol. Chem. 268, 26625-26633, and Mangelsdorf et al. The Retinoids: Biology, Chemistry and Medicine, pp 319-349, Raven Press Ltd., New York, which are expressly incorporated herein by reference. The results obtained in this assay are expressed in EC50 numbers, as they are also in the chimeric receptor transactivation assay. The results of ligand binding assay are expressed in Kd numbers. (See Cheng et al. Biochemical Pharmacology Vol. 22 pp 3099-3108, expressly incorporated herein by reference.)
(§3) Table 1 discloses the activity of certain exemplary compounds of the invention in the above-described chimeric receptor transactivation assay, holoreceptor transactivation assay and a ligand binding assays. Particularly, the transactivation data pertaining to RAR receptors were obtained in the chimeric assay, and the data pertaining to transactivation of RXR receptors were obtained in the holoreceptor transactivation assay.

Another test concerns the target T2, RARγ (Homo sapiens, UniProt P13631).
T2 sequence (P13631 1-454): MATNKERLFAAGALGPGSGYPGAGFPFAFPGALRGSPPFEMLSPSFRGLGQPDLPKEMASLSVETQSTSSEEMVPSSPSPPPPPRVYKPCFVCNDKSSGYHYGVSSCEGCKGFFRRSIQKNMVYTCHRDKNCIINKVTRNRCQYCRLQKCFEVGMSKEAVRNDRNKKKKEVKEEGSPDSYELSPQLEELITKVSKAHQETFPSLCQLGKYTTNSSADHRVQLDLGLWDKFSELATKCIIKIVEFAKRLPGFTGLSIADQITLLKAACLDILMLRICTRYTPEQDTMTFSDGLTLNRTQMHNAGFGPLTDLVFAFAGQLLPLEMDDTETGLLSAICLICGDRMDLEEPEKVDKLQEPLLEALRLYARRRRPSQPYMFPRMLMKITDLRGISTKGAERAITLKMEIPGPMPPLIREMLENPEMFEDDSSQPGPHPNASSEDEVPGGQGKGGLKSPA
Put plainly: ligand binding assay, RARγ. Conditions: read-out: RAR Bind Ki γ.
Description: as §1, §2, §3

In test [1] the target is T3, RXRβ (Homo sapiens, UniProt P28702).
T3 sequence (P28702 1-533): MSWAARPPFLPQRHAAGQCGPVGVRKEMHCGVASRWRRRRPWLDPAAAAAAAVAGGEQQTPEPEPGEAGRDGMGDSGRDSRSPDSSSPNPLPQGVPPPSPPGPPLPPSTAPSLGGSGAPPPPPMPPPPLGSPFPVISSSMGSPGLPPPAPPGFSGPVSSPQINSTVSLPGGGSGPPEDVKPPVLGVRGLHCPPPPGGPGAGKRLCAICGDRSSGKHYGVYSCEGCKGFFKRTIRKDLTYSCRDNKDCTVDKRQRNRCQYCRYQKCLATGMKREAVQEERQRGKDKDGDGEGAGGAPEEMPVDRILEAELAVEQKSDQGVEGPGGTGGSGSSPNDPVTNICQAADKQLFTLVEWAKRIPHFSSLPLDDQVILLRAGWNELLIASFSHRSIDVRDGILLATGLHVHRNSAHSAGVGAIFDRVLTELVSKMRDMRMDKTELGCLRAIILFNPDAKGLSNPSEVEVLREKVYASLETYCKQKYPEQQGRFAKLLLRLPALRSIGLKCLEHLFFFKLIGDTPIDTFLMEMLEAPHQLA
Put plainly: ligand binding assay, RXRβ. Conditions: read-out: RXR Bind Ki β.
Description: as §1, §2, §3

In test [2] the target is T4, RXRβ (Mus musculus, UniProt P28704).
T4 construct: expressed in transfected cells
T4 sequence (P28704 1-520): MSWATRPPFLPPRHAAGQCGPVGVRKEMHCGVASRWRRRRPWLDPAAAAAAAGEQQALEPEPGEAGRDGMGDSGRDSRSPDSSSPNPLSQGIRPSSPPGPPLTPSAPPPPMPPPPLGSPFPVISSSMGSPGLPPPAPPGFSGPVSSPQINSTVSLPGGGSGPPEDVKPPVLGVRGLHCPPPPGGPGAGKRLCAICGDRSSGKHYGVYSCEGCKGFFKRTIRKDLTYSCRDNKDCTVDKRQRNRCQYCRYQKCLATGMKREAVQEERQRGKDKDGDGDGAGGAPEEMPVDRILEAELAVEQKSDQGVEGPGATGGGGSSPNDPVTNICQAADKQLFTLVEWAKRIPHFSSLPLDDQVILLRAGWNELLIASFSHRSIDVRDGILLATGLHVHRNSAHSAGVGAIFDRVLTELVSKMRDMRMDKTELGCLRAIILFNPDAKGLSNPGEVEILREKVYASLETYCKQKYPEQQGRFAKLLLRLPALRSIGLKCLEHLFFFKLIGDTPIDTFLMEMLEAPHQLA
The test can be described thus: holoreceptor transactivation assay, RXRβ. Type of test: cell-based. Conditions: for EC50: holoreceptor assay, read-out: RXR Trans EC50 β; for Emax: relative to 10^-6 M cyclopropyl penta-2,4-dienoic acid reference, read-out: % efficacy, RXRβ transactivation.
Description: as §1, §2, §3

On to `CC(C)CCN(c1ccc(C(=O)O)cc1)c1ccc2c(c1)C(C)(C)CCN2C(C)C` [Compound 14, 4-[(1-Isopropyl-4,4-dimethyl-1,2,3,4-tetrahydroquinolin-6-yl)(3-methylbutyl)amino]-benzoic Acid], for which the Ki on RARα stood at 0.34 µM; at RARγ, 1.5 µM; at RXRβ [1] it was 0.778 µM.
Turning to `Cc1cc2c(cc1N(CC1CC1)c1ccc(C(=O)O)cc1)C(C)(C)CCN2C(C)C` [Compound 26, 4-[(1-Isopropyl-4,4,7-trimethyl-1,2,3,4-tetrahydro-quinolin-6-yl)(cyclopropylmethyl)amino]benzoic acid], at RXRβ [2], the EC50 was over 1 µM. Moreover, on RXRβ [2], the Emax is 10%. In addition, the Ki at RARα was 15 µM; at RARγ, 4.7 µM; on RXRβ [1] it was 0.386 µM.
Taken in the same sequence, the figures for `CCN(c1ccc(C(=O)O)cc1)c1cc2c(cc1C)N(C(C)C)CCC2(C)C` [Compound 24, 4-[(1-Isopropyl-4,4,7-trimethyl-1,2,3,4-tetrahydroquinolin-6-yl)ethylamino]benzoic acid] were 1 µM, 70%, over 10 µM, 9.2 µM and 1.1 µM.
Taken in the same sequence, the figures for `Cc1cc2c(cc1Nc1ccc(C(=O)O)cc1)N(C(C)C)CCC2(C)C` [Compound 50, 4-(1-Isopropyl-4,4,6-trimethyl-1,2,3,4-tetrahydro-quinolin-7-ylamino)-benzoic acid] were 0.027 µM, 104%, over 10 µM, over 10 µM and 0.262 µM.
For `CCCN(c1ccc(C(=O)O)cc1)c1cc2c(cc1C)C(C)(C)CCN2C(C)C` [Compound 53, 4-[(1-Isopropyl-4,4,6-trimethyl-1,2,3,4-tetrahydro-quinolin-7-yl)-propyl-amino]-benzoic acid] the same measures were 0.002 µM, 93%, 3.01 µM, 17 µM and 0.043 µM.
Regarding `CC(C)N1CCC(C)(C)c2cc(N(C)c3ccc(C(=O)O)cc3)ccc21` [Compound 10, 4-[(1-Isopropyl-4,4-dimethyl-1,2,3,4-tetrahydroquinolin-6-yl)methylamino]benzoic Acid], the inhibition constant (Ki) is over 10 µM at RARα, over 10 µM on RARγ and over 1 µM on RXRβ [1].
For `CCN(c1ccc(C(=O)O)cc1)c1ccc2c(c1)C(C)(C)CCN2C(C)C` [Compound 12, 4-[(1-Isopropyl-4,4-dimethyl-1,2,3,4-tetrahydroquinolin-6-yl)ethylamino]benzoic acid], the concentration for a half-maximal effect (EC50) on RXRβ [2] stood at 1 µM. For the same compound, at RXRβ [2], the Emax was found to be 75%. Besides, the Ki on RARα was 0.467 µM; at RARγ it was 1 µM; on RXRβ [1], 0.273 µM.
Regarding `CC(C)CN(c1ccc(C(=O)O)cc1)c1ccc2c(c1)N(C(C)C)CCC2(C)C` [Compound 39, 4-[(1-Isopropyl-4,4-dimethyl-1 2,3,4-tetrahydroquinolin-7-yl)isobutylamino]benzoic acid], the EC50 on RXRβ [2] was 0.01 µM. For the same compound, the Emax on RXRβ [2] amounted to 97%. Also, the results for the Ki at RARα, on RARγ and at RXRβ [1] were 6.7 µM, 2.8 µM and 0.133 µM, respectively.
Taken in the same sequence, the figures for `CC(C)N1CCC(C)(C)c2ccc(N(CC3CC3)c3ccc(C(=O)O)cc3)cc21` [Compound 40, 4-[(1-Isolpropyl-4,4-dimethyl-1,2,3,4-tetrahydroquinolin-7-yl)(cylopropylmethyl)amino]benzoic acid] were 0.003 µM, 93%, 5.1 µM, 3.5 µM and 0.042 µM.
Take `CCN(c1ccc(C(=O)O)cc1)c1ccc2c(c1)C(C)(C)CC(=O)N2C(C)C` [Compound 6, 4-[(1-Isopropyl-4,4-dimethyl-2-oxo-1,2,3,4-tetrahydroquinolin-6-yl)ethylamino]benzoic Acid]: at RXRβ [2], the concentration for a half-maximal effect (EC50) was over 1 µM. The Emax at RXRβ [2] is 40%. The Ki is 10 µM on RARα and over 30 µM on RARγ.
